These results are taken from US5707977A, “Watersoluble azole antifungals” (Janssen Pharmaceutica, N.V., priority 1996, dated 1998).

Data set [1] is described as follows: Solubility in water and in 0.1N HCl (1 hour shaking at room temperature, UV-spectroscopy). The class given is physicochemical. On the procedure: An excess of compound was added to 5 ml of solvent (the type of solvent is specified in the table). The mixture was shaken during 1 hour at room temperature. The precipitate was filtered off. The concentration of the compound was measured via UV-spectroscopy and is shown in the column "Solubility".

Data set [2] relates to Candida albicans. Kind of data set: Mouse disseminated Candida model. The class given is in vivo. The settings on record: IV route; treatment repeated daily for 9 days; mice. The method, then:
Mice in groups of 10 were infected intravenously with 8×10^5 CFU of Candida albicans. Treatment was begun on the day of infection and repeated daily for 9 days. Candida albicans CFU/g kidney were measured for all mice that died spontaneously or were killed on day 10.
The table indicates the lowest concentrations of the shown compounds that achieved a reduction in mean Candida counts of 1 log (i.e. a 10-fold reduction) or more, either in the triple mycosis model or the disseminated Candida infection; also the lowest concentrations that reduced mean skin scores below 1.0 in the cutaneous dermatophytosis component of this model (NT=nor tested, IV=intravenous).

The test system of the next data set is Trichophyton quinckeanum. Kind of data set: Mouse triple mycosis model: cutaneous dermatophytosis (trichophytosis). On the set-up: unit not given here. The settings on record: treatment for 5 days, mice. The class given is in vivo. The method, then:
(§1) The test compounds were evaluated for their activity in a mouse model of fungal infection in which three mycoses--vaginal candidosis, cutaneous trichophytosis and disseminated aspergillosis--were established simultaneously. The mice, in groups of 10, were pretreated with subcutaneous injections of oestradiol valerate (500 μg) then inoculated on day 0 with the following: 100 000 colony forming units (CFU)/g of Aspergillus fumigatus B 19119 intravenously, a suspension containing 10^8 Candida albicans cells intravaginally and a aqueous suspension of Trichophyton quinckeanum on lightly scarified dorsal skin. Treatment with the test compounds (orally or intravenously) was begun on the day of infection and continued for 5 days.

For data set [3], the system named is Candida albicans. Kind of data set: Mouse triple mycosis model: vaginal candidosis. It counts as in vivo. Also noted: unit not given here. The following applies: treatment for 5 days, mice. The method, then:
as §1

Setting [4] is: water, solvent: water, measured pH 6.65 to 7.01.
[5] abbreviates: 0.1n hcl, solvent: 0.1N HCl, measured pH 1.25 to 1.75.

Values after ≈ are worked out from the molar mass of the structure shown. Where a name gives a salt, the structure may show the parent alone.

For orientation: solubility means how much of the substance goes into solution per volume. For `CC(C)(C)C(Cn1ncn(-c2ccc(N3CCN(c4ccc(OC[C@H]5CO[C@](Cn6cncn6)(c6ccc(F)cc6F)O5)cc4)CC3)cc2)c1=O)OP(=O)(O)Oc1ccccc1` (mixture of isomers) [Compound 2, (±)-cis-1-[[4-[4-[4-[4-[[2-(2,4-difluorophenyl)-2-(1H-1,2,4-triazol-1-ylmethyl)-1,3-dioxolan-4-yl]methoxy]phenyl]-1-piperazinyl]phenyl]-4,5-dihydro-5-oxo-1H-1,2,4-triazol-1-yl]methyl]-2,2-dimethylpropyl phenyl sodium phosphate], in data set [1] (solvent: water, measured pH 6.65 to 7.01), the solubility at 1 h is > 6 mg/mL.

Consider `CC(C)(C)C(Cn1ncn(-c2ccc(N3CCN(c4ccc(OC[C@H]5CO[C@](Cn6cncn6)(c6ccc(F)cc6F)O5)cc4)CC3)cc2)c1=O)OP(=O)(O)O` (mixture of isomers) [Compound 3, (±)-ammonium cis-1-[[4-[4-[4-[4-[[2-(2,4-difluorophenyl)-2-(1H-1,2,4-triazol-1-ylmethyl)-1,3-dioxolan-4-yl]methoxy]phenyl]-1-piperazinyl]phenyl]-4,5-dihydro-5-oxo-1H-1,2,4-triazol-1-yl]methyl]-2,2-dimethylpropyl phosphate], for which the “lowest concentration, Kidney Candida CFU reduced by 1 log or more” value in the data set with Candida albicans [2] stood at 10. In addition, the solubility at 1 h in data set [1] (setting [4]) came to 31.9 mg/mL. Besides, the “lowest concentration, Dermatophyte skin score reduced to ≤1” value with Trichophyton quinckeanum (IV route) and with Trichophyton quinckeanum (oral route) was 2.5 throughout. The “lowest concentration, Vaginal Candida CFU reduced by 1 log or more” value in the data set on Candida albicans [3] (IV route) and in the data set with Candida albicans [3] (oral route) was 2.5 each time.

The molecule `CC(C)(C)C(Cn1ncn(-c2ccc(N3CCN(c4ccc(OC[C@H]5CO[C@](Cn6cncn6)(c6ccc(Cl)cc6)O5)cc4)CC3)cc2)c1=O)OP(=O)(O)O` (mixture of isomers) [Compound 7, (±)-ammonium cis-1-[[4-[4-[4-[4-[[2-(4-chlorophenyl)-2-(1H-1,2,4-triazol-1-yl-methyl)-1,3-dioxolan-4-yl]methoxy]phenyl]-1-piperazinyl]phenyl]-4,5-dihydro-5-oxo-1H-1,2,4-triazol-1-yl]methyl]-2,2-dimethylpropyl phosphate(ester) monohydrate] returned a solubility at 1 h in data set [1] (setting [4]) of 0.35 mg/mL.

As for `CC(C)(C)C(Cn1ncn(-c2ccc(N3CCN(c4ccc(OC[C@H]5CO[C@](Cn6cncn6)(c6ccc(F)cc6)O5)cc4)CC3)cc2)c1=O)OP(=O)(O)O` (mixture of isomers) [Compound 9, (±)-ammonium cis-1-[[4-[4-[4-[4-[[2-(4-fluorophenyl)-2-(1H-1,2,4-triazol-1-ylmethyl)-1,3-dioxolan-4-yl]methoxy]phenyl]-1-piperazinyl]phenyl]-4,5-dihydro-5-oxo-1H-1,2,4-triazol-1-yl]methyl]-2,2-dimethylpropyl phosphate], the solubility at 1 h in data set [1] (setting [4]) was found to be 2.65 mg/mL.

Consider `CC(C)(C)C(Cn1ncn(-c2ccc(N3CCN(c4ccc(OC[C@H]5CO[C@](Cn6cncn6)(c6ccc(F)cc6F)O5)cc4)CC3)cc2)c1=O)OP(=O)(O)O` (mixture of isomers) [Compound 17, (±)-cis-4-[4-[4-[4-[[2-(2,4-difluorophenyl)-2-(1H-1,2,4-triazol-1-ylmethyl)-1,3-dioxolan-4-yl]methoxy]phenyl]-1-piperazinyl]phenyl]-2-[3,3-dimethyl-2-(phosphonooxy)butyl]-2,4-dihydro-3H-1,2,4-triazol-3-one hemihydrate], for which the “lowest concentration, Dermatophyte skin score reduced to ≤1” value in the data set with Trichophyton quinckeanum (IV route, hemihydrate) is recorded as < 2.5. Besides, in the data set with Candida albicans [3] (IV route, hemihydrate), the “lowest concentration, Vaginal Candida CFU reduced by 1 log or more” value is reported as < 2.5.

In the case of `CC(C)(C)C(Cn1ncn(-c2ccc(N3CCN(c4ccc(OC[C@H]5CO[C@](Cn6cncn6)(c6ccc(F)cc6F)O5)cc4)CC3)cc2)c1=O)OC(=O)CCN` (mixture of isomers) [Compound 36, (±)-cis-1-[[4-[4-[4-[4-[[2-(2,4-difluorophenyl)-2-(1H-1,2,4-triazol-1-ylmethyl)-1,3-dioxolan-4-yl]methoxy]phenyl]-1-piperazinyl]phenyl]-4,5-dihydro-5-oxo-1H-1,2,4-triazol-1-yl]methyl]-2,2-dimethylpropyl β-alanine monohydrochloride], in data set [1] (setting [5]), the solubility at 1 h is > 6 mg/mL.

As to `CC(C)(C)C(Cn1ncn(-c2ccc(N3CCN(c4ccc(OC[C@H]5CO[C@](Cn6cncn6)(c6ccc(F)cc6F)O5)cc4)CC3)cc2)c1=O)OC(=O)CCN1CCCC1` (mixture of isomers) [Compound 37, (±)-cis-1-[[4-[4-[4-[4-[[2-(2,4-difluorophenyl)-2-(1H-1,2,4-triazol-1-ylmethyl)-1,3-dioxolan-4-yl]methoxy]phenyl]-1-piperazinyl]phenyl]-4,5-dihydro-5-oxo-1H-1,2,4-triazol-1-yl]methyl]-2,2-dimethylpropyl 1-pyrrolidinepropanoate . monohydrochloride . monohydrate], the solubility at 1 h in data set [1] (setting [5]) is > 6 mg/mL.

The term Solubility denotes how much of the substance goes into solution per volume. Take `CN1CCN(CC(=O)OC(Cn2ncn(-c3ccc(N4CCN(c5ccc(OC[C@H]6CO[C@](Cn7cncn7)(c7ccc(F)cc7F)O6)cc5)CC4)cc3)c2=O)C(C)(C)C)CC1` (mixture of isomers) [Compound 34, (±)-cis-1-[[4-[4-[4-[4-[[2-(2,4-difluorophenyl)-2-(1H-1,2,4-triazol-1-ylmethyl)-1,3-dioxolan-4-yl]methoxy]phenyl]-1-piperazinyl]phenyl]-4,5-dihydro-5-oxo-1H-1,2,4-triazol-1-yl]methyl]-2,2-dimethylpropyl 4-methyl-1-piperazineacetate monohydrochloride]: the “lowest concentration, Kidney Candida CFU reduced by 1 log or more” value with Candida albicans [2] turned out to be 5. Moreover, the Solubility in data set [1] (solvent: 0.1N HCl, measured pH 1.25 to 1.75, monohydrochloride, 60 min) was > 6 mg/mL. Further, the “lowest concentration, Dermatophyte skin score reduced to ≤1” value in the data set on Trichophyton quinckeanum (IV route) and with Trichophyton quinckeanum (oral route) was 2.5 throughout. Moreover, the “lowest concentration, Vaginal Candida CFU reduced by 1 log or more” value with Candida albicans [3] (IV route) and in the data set on Candida albicans [3] (oral route) was 2.5 each time.

`CN1CCN(CC(=O)OC(Cn2ncn(-c3ccc(N4CCN(c5ccc(OC[C@H]6CO[C@](Cn7cncn7)(c7ccc(F)cc7F)O6)cc5)CC4)cc3)c2=O)C(C)(C)C)CC1` (stereo partly drawn) [Compound 29]: the solubility at 1 h in data set [1] (setting [5]) was found to be 4.89 mg/mL (≈ 5.71 mM).

As to `CCN(CC)CC(=O)OC(Cn1ncn(-c2ccc(N3CCN(c4ccc(OC[C@H]5CO[C@](Cn6cncn6)(c6ccc(F)cc6F)O5)cc4)CC3)cc2)c1=O)C(C)(C)C` (stereo partly drawn) [Compound 30], the solubility at 1 h in data set [1] (setting [5]) is 5.22 mg/mL (≈ 6.29 mM).

`CC(C)(C)C(Cn1ncn(-c2ccc(N3CCN(c4ccc(OC[C@H]5CO[C@](Cn6cncn6)(c6ccc(F)cc6F)O5)cc4)CC3)cc2)c1=O)OC(=O)CN1CCN(CCO)CC1` (stereo partly drawn) [Compound 31]: in data set [1] (setting [5]), the solubility at 1 h is > 6 mg/mL.

With `CN1CCN(CCC(=O)OC(Cn2ncn(-c3ccc(N4CCN(c5ccc(OC[C@H]6CO[C@](Cn7cncn7)(c7ccc(F)cc7F)O6)cc5)CC4)cc3)c2=O)C(C)(C)C)CC1` (stereo partly drawn) [Compound 33], in data set [1] (setting [5]), the solubility at 1 h is > 6 mg/mL.

As to `CC(C)(C)C(Cn1ncn(-c2ccc(N3CCN(c4ccc(OC[C@H]5CO[C@](Cn6cncn6)(c6ccc(F)cc6F)O5)cc4)CC3)cc2)c1=O)OC(=O)CN` (stereo partly drawn) [Compound 38], in data set [1] (setting [5]), the solubility at 1 h was > 6 mg/mL.
